For one experiment, the system named is H2 -receptor. The experiment is described as follows: Test A (H2 -receptor antagonism in isolated guinea-pig atrium). The settings on record: inhibition of histamine (1×10^-6 g/ml)-induced increase in beating rate, test compound 1×10^-6 g/ml, 30 minutes, 30°C. As to the method:
Test A (H2 -receptor antagonism in isolated guinea-pig atrium):
The atrial strip isolated from guinea-pig was suspended under an initial tension 0.3 to 0.6 g in an organ bath containing Tyrode solution at 30°C., aerated 95% O2 -5% CO2 gas. The beating rate and amplitude of contraction of the atrium were recorded by means of a transducer and a polygraph. Histamine (1×10^-6 g/ml) was added to the bathing fluid and the increase in beating rate after dosing was measured. Addition of test compounds (1×10^-6 g/ml) was made 30 minutes after washing out histamine. Inhibitory effect of test compound was calculated by comparing histamine-induced increases in beating rate before and 30 minutes after dosing with the test compounds.

The test system of experiment [1] is Campylobacter pyloridis 8008. In words: Test C (Anti-microbial activity), agar dilution method. The class given is cell-based. The settings on record: Helicobacter pylori, 72 h, Brucella agar plus 5% lysed horse blood, 37° C. for 3 days, 10% CO2, 10^4 cfu/ml. The procedure:
Test C (Anti-microbial activity):
In vitro antimicrobial activity was determined by the agar dilution method. Test strain was precultured in Brucella broth Agar containing 5% horse serum at 37° C. for 3 days, and 10^4 cfu/ml were inoculated with a multipoint replicater onto Brucella agar plus 5% lysed horse blood plate containing serial 2-fold dilutions of each drug at 37° C. for 3 days. Incubation was carried out in an atmosphere of 10% CO2. MIC was read after incubation as the lowest drug concentration that inhibited macroscopic colonial growth.

For experiment [2], the system named is histamine-stimulated gastric secretion. In words: Test B (Gastric secretion from lumen perfused stomach in anesthetized rats). The settings on record: maximal inhibition of acid output, histamine 3 mg/kg/hr i.v., test compound 1 mg/kg intravenously. The experiment is classed as in vivo, Male Sprague-Dawley rats. As to the method: Test B (Gastric secretion from lumen perfused stomach in anesthetized rats):
Male Sprague-Dawley rats weighing about 250 g were used. Rats were deprived of food but allowed free access to water for 24 hours. The animals were anesthetized with 1.25 g/kg urethane intraperitoneally. The abdomen was opened and the gastric lumen was perfured with saline throughout the experiment. The perfusate was titrated by an autotitrator with 25 mM sodium hydroxide as a titrant. Gastric secretion was stimulated by intravenous infusion with histamine (3 mg/kg/hr). After reaching plateau, test compound (1 mg/kg) was given intravenously. Drug effect was expressed as maximal inhibition by acid output.

In a further experiment the test system is HCl-aspirin ulcer. In words: Test D (Inhibition of HCl-aspirin ulcer). The experiment is classed as in vivo, male Sprague-Dawley rats. To be noted: length of ulcers vs control; test compound 32 mg/kg orally 30 minutes before aspirin 200 mg/kg in 0.2N HCl; rats. The procedure: Test D (Inhibition of HCl-aspirin ulcer):
Seven male Sprague-Dawley rats, aged 6 weeks and weighing about 200 g were used per group for the study on HCl-aspirin ulcer after the fast for 24 hours. Each of the test compounds (32 mg/kg) suspended in 0.1% methylcellulose solution was administered orally 30 minutes before aspirin administration. Aspirin, suspended in 0.1% methylcellulose solution containing 0.2N HCl, was administered orally at a dose of 200 mg/kg/10 ml. One hour later, the animals were sacrificed and their stomachs were removed. The stomach was then fixed with 2% formalin. The length of ulcers was measured for each animal, and percentage of inhibition was calculated by comparing the mean length of ulcers (mm) in the test animals with that in the control animals.

With `CCCCCCNC(N)=Nc1nc(-c2ccc(CNC(C)=O)o2)cs1` [Test Compound (b), 4-(5-Acetylaminomethylfuran-2-yl)-2-(amino)(n-hexylamino)methyleneamino!thiazole], the “H2 Antagonism (%)” value in the experiment with H2 -receptor worked out at 78.5%. Moreover, the MIC in experiment [1] turned out to be 0.1 µg/mL. Consider `COCCNC(N)=Nc1nc(-c2ccc(CNC(C)=O)o2)cs1` [Test Compound (c), 4-(5-Acetylaminomethylfuran-2-yl)-2-(amino)-(2-methoxyethylamino)methyleneamino!thiazole], for which the “Inhibition (%)” value in experiment [2] was determined as 69%. With `CC(=O)NCc1ccc(-c2csc(N=C(N)NCCc3ccccn3)n2)o1` [Test Compound (d), 4-(5-Acetylaminomethylfuran-2-yl)-2-(amino)-2-(2-pyridyl)ethylamino!methyleneamino!thiazole], the MIC in experiment [1] was found to be 0.78 µg/mL. Turning to `CCCCNC(N)=Nc1nc(-c2ccc(CNC(C)=O)o2)cs1` [Test Compound (a), 4-(5-Acetylaminomethylfuran-2-yl)-2-(amino)(n-butylamino)methyleneamino!thiazole], in the experiment on HCl-aspirin ulcer, the “Inhibition (%)” value came out at 86.9%. Consider `C=CCNC(N)=Nc1nc(-c2ccc(CNC(C)=O)o2)cs1` [Test Compound (e)], for which the MIC in experiment [1] amounted to 0.78 µg/mL.
